Where two headings read alike, the source gives them in different places.
Key:
EBC-1 cells = test: Anti-proliferation activity, CTG, EBC-1 cells; type: cell-based, human
Method: (§1) Experimental objective: To evaluate the anti-proliferation activities of the compounds against MKN-45 cells, EBC-1 cells, Hs746T cells and Vero cells.
(§2) Experimental methods: Tumor cell lines were cultured and periodically passaged, and cells in logarithmic growth phase were taken for plate spreading. The cells were stained with Trypan blue, counted and adjusted to an appropriate density. 50 μL of cell suspension was added into each well of a culture plate, and 50 μL of nutrient solution without cells was added into a blank control well. The culture plate was precultured for 24 h in an incubator under the condition of 37° C., 5% CO2 and 100% relative humidity.
(§3) The DMSO stock solutions of the compounds 1-28 and Capmatinib were prepared, and diluted with Tecan D300e. Each compound was diluted to 7 concentration levels: 0.50 μM, 0.125 μM, 0.031 μM, 0.0078 μM, 0.0020 μM, 0.00049 μM, 0.00012 μM. The experiment was carried out in triplicate.
(§4) 50 μL of the solution was added into each designated well, and the culture plate was incubated for 48 h. 50 μL of CTG working solution was added to each well. The culture plate was wrapped with aluminum foil to avoid light and shaken in the shaker for 2 min to induce cell lysis. The culture plate was placed at room temperature for 10 min to stabilize light-emitting signal which was detected with a 2014 EnVision plate reader. Experimental data was processed by GraphPad Prism 7 to calculate IC50.

MKN-45 cells = test: Anti-proliferation activity, CTG, MKN-45 cells; type: cell-based
Method: as §1, §2, §3, §4

Vero cells = test: Anti-proliferation activity, CTG, Vero cells; type: cell-based
Method: as §1, §2, §3, §4

in vivo = settings: both, Kunming, mouse, po
c-MET = c-MET (Homo sapiens (Human), UniProt P08581); test: c-MET kinase inhibitory activity (ELISA, poly(Glu,Tyr) substrate); type: biochemical; settings: read-out: c-MET kinase inhibitory enzymatic activity IC50
Hs746T cells = test: Anti-proliferation activity, CTG, Hs746T cells; type: cell-based
Method: as §1, §2, §3, §4

SPF Kunming mice = settings: mouse, in vivo, po
[1] = system: human EBC-1 cell subcutaneous xenograft model; test: In vivo anti-tumor assessment in EBC-1 cell xenograft tumor mouse model; parameters: species or system mice; settings: 10 mg/kg P.O. QD × 15 days; for inhibition of growth of the tumor in mice (tumor volume change): end of the experiment, FIG. 2
Method: Experimental objective: To investigate in vivo efficacy of representative compounds on human lung squamous carcinoma cell (human EBC-1 cell) subcutaneous xenograft model.
Experimental methods: The EBC-1 cell xenograft tumor mouse model was used, according to the diameters of tumor, the tumor volume (TV), relative tumor volume (RTV), relative tumor proliferation rate (T/C (%)) and tumor growth inhibition value (TGI (%)) were calculated.
TGI (%) or T/C (%) of the compounds was evaluated. TGI (%) reflects a tumor growth inhibitory rate. TGI (%) was calculated as follows: TGI (%)=[1−(average tumor volume at the end of administration in a treatment group-average tumor volume at the beginning of administration in the treatment group)/(average tumor volume at the end in a solvent control group-average tumor volume at the beginning in the solvent control group)]×100%.
T/C (%) was calculated as follows: T/C (%)=TRTV/CRTV×100%; where TRTV is treatment RTV, and CRTV is negative control RTV. According to the measurement results of the tumor, RTV was calculated, and the calculating formula for RTV is as follows: RTV=Vt/V0; where V0 is the average tumor volume measured on the day of first administration; and Vt is the average tumor volume measured on a specified day. TRTV and CRTV were measured on the same day.

[2] = Homo sapiens, EBC-1 cells, 48 h, CTG
[3] = Homo sapiens, MKN-45 cells, 48 h, CTG
[4] = Chlorocebus sabaeus, Vero cells, 48 h, CTG
[5] = Homo sapiens, Hs746T cells, 48 h, CTG

Sequence of c-MET (P08581 25-1390): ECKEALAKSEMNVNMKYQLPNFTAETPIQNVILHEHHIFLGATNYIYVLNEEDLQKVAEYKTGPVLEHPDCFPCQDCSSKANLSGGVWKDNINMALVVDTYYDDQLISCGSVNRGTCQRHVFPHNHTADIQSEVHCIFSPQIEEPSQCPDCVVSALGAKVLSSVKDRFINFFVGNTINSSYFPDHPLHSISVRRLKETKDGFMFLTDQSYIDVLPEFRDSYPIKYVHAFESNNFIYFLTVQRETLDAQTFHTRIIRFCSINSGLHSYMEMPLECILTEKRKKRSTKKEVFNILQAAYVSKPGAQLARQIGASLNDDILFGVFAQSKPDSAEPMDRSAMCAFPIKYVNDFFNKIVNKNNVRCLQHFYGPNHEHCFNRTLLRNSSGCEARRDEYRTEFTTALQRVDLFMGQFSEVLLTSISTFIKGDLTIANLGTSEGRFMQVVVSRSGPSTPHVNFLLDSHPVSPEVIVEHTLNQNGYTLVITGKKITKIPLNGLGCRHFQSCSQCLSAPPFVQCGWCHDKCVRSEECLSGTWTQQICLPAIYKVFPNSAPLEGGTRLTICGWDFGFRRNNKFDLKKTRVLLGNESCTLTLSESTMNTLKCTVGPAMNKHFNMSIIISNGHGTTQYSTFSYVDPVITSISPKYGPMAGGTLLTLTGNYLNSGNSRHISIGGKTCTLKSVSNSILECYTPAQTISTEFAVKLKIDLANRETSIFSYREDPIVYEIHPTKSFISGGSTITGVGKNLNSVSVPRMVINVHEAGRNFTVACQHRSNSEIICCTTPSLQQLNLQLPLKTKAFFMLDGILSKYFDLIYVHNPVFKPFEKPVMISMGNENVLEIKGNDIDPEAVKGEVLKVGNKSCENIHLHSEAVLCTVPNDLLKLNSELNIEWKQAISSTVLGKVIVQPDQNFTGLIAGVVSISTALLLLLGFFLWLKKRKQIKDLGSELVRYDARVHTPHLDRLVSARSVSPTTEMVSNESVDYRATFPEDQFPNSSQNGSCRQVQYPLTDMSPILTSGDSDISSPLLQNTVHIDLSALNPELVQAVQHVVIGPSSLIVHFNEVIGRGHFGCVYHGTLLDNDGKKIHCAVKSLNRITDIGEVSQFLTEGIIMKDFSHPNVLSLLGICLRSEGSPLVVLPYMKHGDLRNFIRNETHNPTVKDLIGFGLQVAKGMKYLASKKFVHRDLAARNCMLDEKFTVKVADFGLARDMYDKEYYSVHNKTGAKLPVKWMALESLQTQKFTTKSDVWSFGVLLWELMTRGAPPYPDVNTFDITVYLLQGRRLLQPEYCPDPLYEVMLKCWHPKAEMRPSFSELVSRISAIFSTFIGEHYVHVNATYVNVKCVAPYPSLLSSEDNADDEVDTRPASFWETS

Row | Structure (SMILES) | IC50 (c-MET; ATP 4 μM, 37° C. 1 h) | IC50 (EBC-1 cells; EBC-1 cells, 48 h, CTG) | IC50 (MKN-45 cells; MKN-45 cells, 48 h, CTG) | LD50 (SPF Kunming mice) | IC50 (Vero cells; Vero cells, 48 h, CTG) | IC50 (Hs746T cells; Hs746T cells, 48 h, CTG) | also measured
1 | CNC(=S)c1ccc(-c2cnc3ncc(Cc4ccc5c(c4)OCO5)n3n2)cc1F [Compound 20] | 0.0021 nM | – | – | – | – | – | IC50 (EBC-1 cells; [2]): 1.8 nM; IC50 (MKN-45 cells; [3]): 1.1 nM; IC50 (Vero cells; [4]): 164 nM; LD50 (in vivo): 305 mg/kg; IC50 (Hs746T cells; [5]): 1.2 nM
2 | CNC(=S)c1ccc(-c2cnc3ncc(Cc4ccc5ncccc5c4)n3n2)c(F)c1 [Compound 5] | 0.0021 nM | 1.2 nM | 1.6 nM | 298 mg/kg | 138 nM | 1.6 nM | –
3 | CNC(=S)c1ccc(-c2cnc3ncc(Cc4ccc5ncccc5c4)n3n2)c(F)c1F [Compound 7] | 0.0022 nM | 1.2 nM | 1.3 nM | 305 mg/kg | 127 nM | 1.8 nM | –
4 | CNC(=S)c1ccc(-c2cnc3ncc(Cc4cc(Cl)c5ncccc5c4)n3n2)cc1F [Compound 15] | 0.0013 nM | 1.5 nM | 1.6 nM | 305 mg/kg | 238 nM | 1.3 nM | –
5 | CNC(=S)c1ccc(-c2cnc3ncc(Cc4ccc5ncccc5c4)n3n2)cc1O [Compound 11] | 0.0025 nM | – | – | – | – | – | IC50 (EBC-1 cells; [2]): 1.8 nM; IC50 (MKN-45 cells; [3]): 1.4 nM; IC50 (Vero cells; [4]): 231 nM; LD50 (in vivo): 296 mg/kg; IC50 (Hs746T cells; [5]): 1.4 nM
6 | CNC(=S)c1cc(F)c(-c2cnc3ncc(Cc4ccc5ncccc5c4)n3n2)cc1F [Compound 6] | 0.0015 nM | 1.9 nM | 1.9 nM | 292 mg/kg | 116 nM | 1.9 nM | –
7 | CC(C)NC(=S)c1ccc(-c2cnc3ncc(Cc4ccc5ncccc5c4)n3n2)cc1F [Compound 3] | 0.0016 nM | – | – | – | – | – | IC50 (EBC-1 cells; [2]): 1.8 nM; IC50 (MKN-45 cells; [3]): 1.5 nM; IC50 (Vero cells; [4]): 101 nM; LD50 (in vivo): 291 mg/kg; IC50 (Hs746T cells; [5]): 1.5 nM
8 | CNC(=S)c1ccc(-c2cnc3ncc(Cc4ccc5ncccc5c4)n3n2)cc1N [Compound 9] | 0.0017 nM | – | – | – | – | – | IC50 (EBC-1 cells; [2]): 1.6 nM; IC50 (MKN-45 cells; [3]): 1.8 nM; IC50 (Vero cells; [4]): 252 nM; LD50 (in vivo): 297 mg/kg; IC50 (Hs746T cells; [5]): 1.4 nM
9 | CN(C)C(=S)c1ccc(-c2cnc3ncc(Cc4ccc5ncccc5c4)n3n2)cc1F [Compound 2] | 0.0019 nM | – | – | – | – | – | IC50 (EBC-1 cells; [2]): 1.2 nM; IC50 (MKN-45 cells; [3]): 1.1 nM; IC50 (Vero cells; [4]): 126 nM; LD50 (in vivo): 284 mg/kg; IC50 (Hs746T cells; [5]): 1.4 nM
10 | CNC(=S)c1ccc(-c2cnc3ncc(Cc4ccc5ncccc5c4)n3n2)cc1F [Compound 1] | 0.0022 nM | 1.4 nM | 1.5 nM | 293 mg/kg | 129 nM | 1.6 nM | T/C(%) [1]: 15.09%; TGI(%) [1]: 103.24%; Tumor Volume (Day 15) [1]: 136 ± 17 mm^3; inhibition of growth of the tumor in mice (tumor volume change) [1]: better inhibitory effects
11 | CNC(=S)c1ccc(-c2cnc3ncc(C(F)(F)c4ccc5ncccc5c4)n3n2)cc1F [Compound 28] | 0.0018 nM | 1.2 nM | 1.5 nM | 294 mg/kg | 237 nM | 1.4 nM | –
12 | CNC(=S)c1ccc(-c2cnc3ncc(Cc4ccc5scnc5c4)n3n2)cc1F [Compound 19] | 0.0019 nM | – | – | – | – | – | IC50 (EBC-1 cells; [2]): 1.4 nM; IC50 (MKN-45 cells; [3]): 1.9 nM; IC50 (Vero cells; [4]): 251 nM; LD50 (in vivo): 297 mg/kg; IC50 (Hs746T cells; [5]): 1.4 nM
13 | CNC(=S)c1ccc(-c2cnc3ncc(/C(=N/OC)c4ccc5ncccc5c4)n3n2)cc1F [Compound 27] | 0.0019 nM | 1.5 nM | 1.3 nM | 310 mg/kg | 163 nM | 1.8 nM | –
14 | CNC(=S)c1ccc(-c2cnc3ncc(C(N)c4ccc5ncccc5c4)n3n2)cc1F (stereo not shown) [Compound 26] | 0.0017 nM | 1.8 nM | 1.1 nM | 295 mg/kg | 282 nM | 1.1 nM | –
15 | CNC(=S)c1ccc(-c2cnc3ncc(C(O)c4ccc5ncccc5c4)n3n2)cc1F (stereo not shown) [Compound 21] | 0.0014 nM | 1.3 nM | 1.2 nM | 298 mg/kg | 132 nM | 1.1 nM | –
16 | CNC(=S)c1ccc(-c2cnc3ncc(C(c4ccc5ncccc5c4)N(C)C)n3n2)cc1F (stereo not shown) [Compound 25] | – | – | – | 287 mg/kg | – | – | IC50 (EBC-1 cells): 1 nM; IC50 (MKN-45 cells): 1.3 nM; IC50 (Vero cells): 192 nM; IC50 (c-MET): 0.0023 nM; IC50 (Hs746T cells): 1.3 nM
17 | CNC(=S)c1ccc(-c2cnc3ncc(C(OC)c4ccc5ncccc5c4)n3n2)cc1F (stereo not shown) [Compound 23] | 0.0015 nM | 1.1 nM | 1.7 nM | 320 mg/kg | 157 nM | 1.4 nM | –
18 | CNC(=S)c1ccc(-c2cnc3ncc(Cc4ccc5ncccc5c4)n3n2)cc1Cl [Compound 8] | 0.0019 nM | 1.8 nM | 1.7 nM | 321 mg/kg | 142 nM | 1.8 nM | –
19 | CNC(=S)c1ccc(-c2cnc3ncc(C(=O)c4ccc5ncccc5c4)n3n2)cc1F [Compound 22] | 0.0016 nM | 1.7 nM | 1.5 nM | – | 231 nM | 1.8 nM | –
20 | CNC(=S)c1ccc(-c2cnc3ncc(Cc4cc(C(F)(F)F)c5ncccc5c4)n3n2)cc1F [Compound 16] | 0.0015 nM | 1.3 nM | 1.3 nM | 296 mg/kg | 156 nM | 1.7 nM | T/C(%) [1]: 17.98%; TGI(%) [1]: 99.73%; Tumor Volume (Day 15) [1]: 162 ± 23 mm^3; inhibition of growth of the tumor in mice (tumor volume change) [1]: better inhibitory effects
21 | CNC(=S)c1ccc(-c2cnc3ncc(Cc4cc(F)c5ncccc5c4)n3n2)cc1F [Compound 13] | 0.0017 nM | 1.7 nM | 1.2 nM | 314 mg/kg | 152 nM | 1.4 nM | –
